Data: patent publication US20210267939A1, “COMPOSITIONS AND METHODS FOR TREATING NAFLD/NASH AND RELATED DISEASE PHENOTYPES” (priority 2018, published 2021)

Assays:
Assay type in all cases: in vivo
BCKDH e1a = experiment: Immunoblot of phospho-ser293 BCKDH e1a in tissues of treated Zucker fatty rats; conditions: ZFR, BT2 20 mg/kg i.p. daily for one week, vs vehicle
Experimental: Individually housed, male 12 week-old Zucker fatty rats (ZFR, Charles River Laboratories) maintained on a custom control low fat (LF) diet (A11072001, Research Diets) were used for the BDK inhibition and PPM1K overexpression studies. For the BDK inhibition study, ZFR were administered the small molecule BDK inhibitor 3,6-dichlorobenzo[b]thiophene-2-carboxylic acid (BT2, Sigma) daily at a dose of 20 mg/kg dissolved in 200 ul of sterile dimethylsulfoxide by i.p. injection for 7 days. The control group was administered an equal volume of vehicle each day. On day 6, following an overnight fast, ZFR were subjected to a 1 g/kg i.p. glucose tolerance test (GTT) precisely 1 hr after administration of BT2 (20 mg/kg i.p.) or vehicle. The glucose tolerance test was performed as described (White, et al., 2016). Following the GTT, rats were returned to their normal cages and provided free access to food and water. Indirect calorimetry was performed in a second cohort of BT2 treated rats on day 6 of BT2 administration. […]
Immunoblotting: Tissue lysates used for immunoblotting were prepared in Cell Lysis Buffer (Cell Signaling Technologies) containing protease inhibitor tablets (Roche), phosphatase inhibitor cocktails 2 and 3 (Sigma), and 10 mM PMSF. […] Immunoblots were developed using a Li-Cor Odyssey CLx and quantified using the Li-Cor software.

Zucker fatty rats [1] = experiment: Liver triacylglyceride content in treated Zucker fatty rats; conditions: ZFR, BT2 20 mg/kg i.p. daily for one week, vs vehicle
Experimental: (§1) Individually housed, male 12 week-old Zucker fatty rats (ZFR, Charles River Laboratories) maintained on a custom control low fat (LF) diet (A11072001, Research Diets) were used for the BDK inhibition and PPM1K overexpression studies. For the BDK inhibition study, ZFR were administered the small molecule BDK inhibitor 3,6-dichlorobenzo[b]thiophene-2-carboxylic acid (BT2, Sigma) daily at a dose of 20 mg/kg dissolved in 200 ul of sterile dimethylsulfoxide by i.p. injection for 7 days. The control group was administered an equal volume of vehicle each day. […]
(§2) Plasma concentrations of the alpha-keto acids of leucine (α-keto-isocaproate, KIC), isoleucine (α-keto-β-methylvalerate, KMV) and valine (α-keto-isovalerate, KIV) were measured by LC-MS as previously described (Glynn et al., 2015; White et al., 2016). Other plasma analytes were measured on a Beckman DxC600 autoanalyzer, using reagents for lactate, total cholesterol, and triglycerides from Beckman, and non-esterified fatty acids (NEFA) and ketones (total and 3-hydroxybutyrate) from Wako (Richmond, Va.). Glycerol was measured using reagents from TG-B by Roche Diagnostics (Indianapolis, Ind.). Liver triglycerides were quantified using the triglyceride quantification kit from Abcam. Plasma insulin concentrations were measured with a Millipore EMD Rat insulin ELISA kit.

Zucker fatty rats [2] = experiment: 1 g/kg i.p. glucose tolerance test in treated Zucker fatty rats; conditions: ZFR, BT2 20 mg/kg i.p., day 6, 1 g/kg i.p. glucose, vs vehicle
Experimental: as §1, §2

Zucker fatty rats [3] = experiment: Other plasma analytes (lactate, lipids, ketones) in treated Zucker fatty rats; conditions: ZFR, BT2 20 mg/kg i.p. daily for one week, vs vehicle
Experimental: as §1, §2

SMILES: O=C(O)c1sc2cc(Cl)ccc2c1Cl [BT2, 3,6-dichlorobenzo[b]thiophene-2-carboxylic acid]
- BCKDH phosphorylation in skeletal muscle (BCKDH e1a): not associated with a detectable change
- BCKDH phosphorylation on serine 293 of the e1a subunit in liver and heart (BCKDH e1a): lower levels
- hepatic TG levels (Zucker fatty rats [1]): significantly lower
- glucose excursion during ipGTT (Zucker fatty rats [2]): significantly smaller
- insulin excursion during ipGTT (Zucker fatty rats [2]): significantly smaller
- circulating TG, cholesterol, glycerol, non-esterified fatty acids (NEFA), or ketones (Zucker fatty rats [3]): no effects
- lactate in circulation (Zucker fatty rats [3]): lower levels
